Measured values reported in patent US7700717B2, “Photo-active backbone cyclized somatostatin analogs for photodynamic therapy and imaging” (DeveloGen Israel Ltd., priority 2002, dated 2010).
Each block holds one compound with its values, some of them ahead of it.

Tests used:
[1] = tested on: subcutaneously implanted H69 human lung cancer; test: Ex vivo biodistribution by fiber-optic spectrofluorimetry (FOS) in tissues of mice bearing H69 tumors; details: for Fluorescence intensity (a.u.), Kidney / Fluorescence intensity (a.u.), Liver / Fluorescence intensity (a.u.), Lung / Fluorescence intensity (a.u.), Pancreas / Fluorescence intensity (a.u.), Skin / Fluorescence intensity (a.u.), Spleen / Fluorescence intensity (a.u.), Tumor: ex vivo, 24 hours after i.v. administration, FOS
Description: An argon ion laser (Melles Griot, 43 series) was coupled to a spectrofluorophotometer (Shimadzu, model RF-5301PC) using a bifurcated fiber bundle (Oriel, Stratford, Conn., model 77533). Laser light (488 nm) was passed via one leg of the fiber bundle, the common end tip of the bundle was fixed at a distance of 1 mm from a tissue sample, while the end tip of the second leg was mounted in front of the entrance slit of the spectrofluorophotometer. Laser irradiation from the fiber was set to 5 mW, as measured with a laser power meter (Laserstar, Ophir, Israel). An average of three recordings was used for each data point.
For control, one mouse was injected with fluorescein.
Fluorescence measurements were performed: • 1. […] Ex vivo 24 hours post injection using FOS. • 3.

[2] = tested on: subcutaneously implanted H69 human lung cancer; details: mouse, iv
Procedure: Balb/c nude mice xenografts inoculated subcutaneously with the human small cell lung cancer cell line, H69.
Hundred μl of each agent (1 mM stock) were dissolved in 0.5 ml of saline and injected intravenously. For control, one mouse was injected with fluorescein.
In vivo during 24 hours after agent administrations using point (˜1 mm^2 area) measurements by fiber-optic spectroscopic system (FOS). • 2. Ex vivo 24 hours post injection using FOS. • 3.

hSST-R2 = molecular target: T1, hSST-R2 (Homo sapiens, UniProt P30874); test: Inhibition of 125I-Tyr11-SRIF (SRIF-14) binding to membranes of CHO cells expressing cloned human SST-R2; details: Table 2; affinity for hSST-R2, cloned human receptor in CHO cells
T1 construct: expressed in transfected cells
T1 sequence (P30874 whole entry): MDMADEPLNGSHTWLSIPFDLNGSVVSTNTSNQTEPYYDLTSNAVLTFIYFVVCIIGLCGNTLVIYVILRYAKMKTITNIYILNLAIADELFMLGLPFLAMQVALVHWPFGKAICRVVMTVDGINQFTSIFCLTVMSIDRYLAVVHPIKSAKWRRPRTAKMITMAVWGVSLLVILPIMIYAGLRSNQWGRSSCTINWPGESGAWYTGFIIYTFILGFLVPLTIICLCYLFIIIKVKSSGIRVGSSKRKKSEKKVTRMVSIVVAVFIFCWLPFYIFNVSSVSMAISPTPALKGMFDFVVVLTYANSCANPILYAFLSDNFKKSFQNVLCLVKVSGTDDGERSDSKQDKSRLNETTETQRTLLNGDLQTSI
Procedure: The SST analogs were tested for their potency in inhibition of the binding of ^125I-Tyr^11-SRIF (based on the method described by Raynor et. al., Molecular Pharmacology 43: 838, 1993) to membrane preparations expressing transmembrane SST receptors (SST-R1, 2, 3, 4 or 5). The receptor preparations used for these tests were either from the cloned human receptors selectively and stably expressed in Chinese Hamster Ovary (CHO) cells or from cell lines naturally expressing the SST-Rs. Typically, cell membranes were homogenized in Tris buffer in the presence of protease inhibitors and incubated for 30-40 minutes with ^125I-Tyr^11-SRIF with different concentrations of the tested sample. The binding reactions were filtered, the filters were washed and the bound radioactivity was counted in […] after addition of scintillation solution. Non specific binding was defined as the radioactivity remaining bound in the presence of 1 μM unlabeled SRIF-14.
The receptor membrane preparations used for these tests were from the cloned human receptors selectively and stably expressed in CHO cells and the radiolabelled analog used was (3-[^125]tyrosyl^11)SRIF-14. Table 2 above describes the results of the binding assays of selected analogs to the human cloned SST-R2.
The compounds were tested at a concentration of 10 nM, for SRIF-14 displacement on hSST-R2 expressed cells.

SST-R2 and SST-R5 = details: cited from earlier work
hSST-R4 = hSST-R4 (Homo sapiens, UniProt P31391); details: cited from earlier work
Sequence of hSST-R4 (P31391 whole entry): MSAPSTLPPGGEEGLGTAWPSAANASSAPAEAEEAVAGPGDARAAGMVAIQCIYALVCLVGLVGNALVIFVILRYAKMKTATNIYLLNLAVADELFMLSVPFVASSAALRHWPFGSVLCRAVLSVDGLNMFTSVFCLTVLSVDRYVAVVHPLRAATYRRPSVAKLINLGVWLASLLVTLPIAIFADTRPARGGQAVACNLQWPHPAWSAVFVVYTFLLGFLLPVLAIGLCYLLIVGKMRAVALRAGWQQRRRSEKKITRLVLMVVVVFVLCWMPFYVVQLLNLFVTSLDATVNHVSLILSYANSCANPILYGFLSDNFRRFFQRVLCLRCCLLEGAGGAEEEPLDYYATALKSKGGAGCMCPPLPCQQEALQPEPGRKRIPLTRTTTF

Compound: C[C@@H](O)[C@@H]1NC(=O)[C@H](CCCCN)NC(=O)[C@@H](Cc2c[nH]c3ccccc23)NC(=O)[C@H](Cc2c[nH]c3ccccc23)NC(=O)[C@H](Cc2ccccc2)NC(=O)CN(C(=O)CCCNC(=O)c2ccc3c(c2)C(=O)OC32c3ccc(O)cc3Oc3cc(O)ccc32)CCSSCCN(CC(N)=O)C(=O)[C@H](Cc2ccccc2)NC1=O [Compound 48, 5- and 6-carboxyfluorescein-GABA-GlyS2*-Phe-Trp-DTrp-Lys-Thr-Phe-GlyS2*-NH2]
Fluorescence intensity (a.u.), Kidney [1]: 15 ± 6 a.u.
Fluorescence intensity (a.u.), Liver [1]: 10 ± 5 a.u.
Fluorescence intensity (a.u.), Lung [1]: 25 ± 8 a.u.
Fluorescence intensity (a.u.), Pancreas [1]: 16 ± 5 a.u.
Fluorescence intensity (a.u.), Skin [1]: 90 ± 20 a.u.
Fluorescence intensity (a.u.), Spleen [1]: 7 ± 2 a.u.
Fluorescence intensity (a.u.), Tumor [1]: 50 ± 20 a.u.

Compound: C[C@@H](O)[C@@H]1NC(=O)[C@H](CCCCN)NC(=O)[C@@H](Cc2c[nH]c3ccccc23)NC(=O)[C@H](Cc2c[nH]c3ccccc23)NC(=O)[C@H](Cc2ccccc2)NC(=O)[C@@H](NC(=O)[C@@H](Cc2ccccc2)NC(=O)CCCNC(=S)Nc2ccc3c(c2)C(=O)OC32c3ccc(O)cc3Oc3cc(O)ccc32)CSSCCN(CC(N)=O)C(=O)[C@H](Cc2ccccc2)NC1=O [Compound 86, 5-(aminothionyl)fluorescein-GABA-DPhe-Cys*-Phe-Trp-DTrp-Lys-Thr-Phe-GlyS2*-NH2]
IC50 (hSST-R2): 1.7 nM
Fluorescence intensity (a.u.), Kidney [1]: 23 ± 5 a.u.
Fluorescence intensity (a.u.), Liver [1]: 13 ± 3 a.u.
Fluorescence intensity (a.u.), Lung [1]: 70 ± 14 a.u.
Fluorescence intensity (a.u.), Pancreas [1]: 22 ± 6 a.u.
Fluorescence intensity (a.u.), Skin [1]: 65 ± 13 a.u.
Fluorescence intensity (a.u.), Spleen [1]: 7 ± 1.4 a.u.
Fluorescence intensity (a.u.), Tumor [1]: 626 ± 55 a.u.
tissue accumulation / specificity to the tumor in words ([1]; mouse, in vivo): particularly high specificity to the tumor
fluorescence in normal organs in ex vivo spectral images [2]: no fluorescence in normal organs
tumor fluorescence in ex vivo spectral images [2]: high and selective tumor fluorescence

Compound: GABA*-Phe-Trp-DTrp-Lys-Thr-Phe-GlyC3*-NH2 (XFWWKTFG; not fully specified; backbone cyclized; GABA; C-terminal amide) [PTR 3173]
SST receptor subtype selectivity (SST-R2 and SST-R5): selective for SST-R2 and SST-R5
affinity to hSST-R4 (hSST-R4): moderate affinity

Continued, in another order:

Fluorescence intensity (a.u.), Kidney [1]: 32 ± 5 a.u.
Fluorescence intensity (a.u.), Liver [1]: 17 ± 3 a.u.
Fluorescence intensity (a.u.), Lung [1]: 37 ± 6 a.u.
Fluorescence intensity (a.u.), Skin [1]: 120 ± 18 a.u.
Fluorescence intensity (a.u.), Spleen [1]: 4 ± 1 a.u.
Fluorescence intensity (a.u.), Tumor [1]: 106 ± 16 a.u.
tumor fluorescence in ex vivo spectral images [2]: high and selective fluorescence
Compound: C[C@@H](O)[C@@H]1NC(=O)[C@H](CCCCN)NC(=O)[C@@H](Cc2c[nH]c3ccccc23)NC(=O)[C@H](Cc2c[nH]c3ccccc23)NC(=O)[C@H](Cc2ccccc2)NC(=O)CN(C(=O)[C@@H](Cc2ccccc2)NC(=O)CCNC(=S)Nc2ccc3c(c2)C(=O)OC32c3ccc(O)cc3Oc3cc(O)ccc32)CCSSCCN(CC(N)=O)C(=O)[C@H](Cc2ccccc2)NC1=O [Compound 62, 5-(aminothionyl)fluorescein-βAla-DPhe-GlyS2*-Phe-Trp-DTrp-Lys-Thr-Phe-GlyS2*-NH2]
fluorescence in normal organs in ex vivo spectral images [2]: no (lungs and kidney) or little (dermis) fluorescence

Fluorescence intensity (a.u.), Kidney [1]: 20 ± 3 a.u.
Fluorescence intensity (a.u.), Liver [1]: 12 ± 2 a.u.
Fluorescence intensity (a.u.), Lung [1]: 40 ± 6 a.u.
Fluorescence intensity (a.u.), Skin [1]: 120 ± 18 a.u.
Fluorescence intensity (a.u.), Spleen [1]: 4 ± 1 a.u.
Fluorescence intensity (a.u.), Tumor [1]: 110 ± 17 a.u.
Compound: C[C@@H](O)[C@@H]1NC(=O)[C@H](CCCCN)NC(=O)[C@@H](Cc2c[nH]c3ccccc23)NC(=O)[C@H](Cc2c[nH]c3ccccc23)NC(=O)[C@H](Cc2ccccc2)NC(=O)CN(C(=O)[C@@H](Cc2ccccc2)NC(=O)CCNC(=O)c2ccc3c(c2)C(=O)OC32c3ccc(O)cc3Oc3cc(O)ccc32)CCSSCCN(CC(N)=O)C(=O)[C@H](Cc2ccccc2)NC1=O [Compound 64, 5- and 6-carboxyfluorescein-βAla-DPhe-GlyS2*-Phe-Trp-DTrp-Lys-Thr-Phe-GlyS2*-NH2]

Fluorescence intensity (a.u.), Kidney [1]: 18 ± 3 a.u.
Fluorescence intensity (a.u.), Liver [1]: 5 ± 1 a.u.
Fluorescence intensity (a.u.), Lung [1]: 27 ± 4 a.u.
Fluorescence intensity (a.u.), Pancreas [1]: 10 ± 2 a.u.
Fluorescence intensity (a.u.), Skin [1]: 116 ± 17 a.u.
Fluorescence intensity (a.u.), Spleen [1]: 2 ± 0.3 a.u.
Fluorescence intensity (a.u.), Tumor [1]: 122 ± 18 a.u.
Compound: C[C@@H](O)[C@@H]1NC(=O)[C@H](CCCCN)NC(=O)[C@@H](Cc2c[nH]c3ccccc23)NC(=O)[C@H](Cc2c[nH]c3ccccc23)NC(=O)[C@H](Cc2ccccc2)NC(=O)CN(C(=O)[C@@H](Cc2ccccc2)NC(=O)CCCCNC(=S)Nc2ccc3c(c2)C(=O)OC32c3ccc(O)cc3Oc3cc(O)ccc32)CCSSCCN(CC(N)=O)C(=O)[C@H](Cc2ccccc2)NC1=O [Compound 70, 5-(aminothionyl)fluorescein-aminopentanoyl-DPhe-GlyS2*-Phe-Trp-DTrp-Lys-Thr-Phe-GlyS2*-NH2]
